Measurements taken from EP1016405A2, “Arylating medicaments” (Radopath Pharmaceuticals International Limited, priority 1993, dated 1994).
“And” between values parts separate entries of the source, which are not always exact repeats. Equal entries are not always repeated. Where two headings read alike, the source gives them in different places.

Experiments:
[1] = test system: MAC15A (murine adenocarcinoma colon); assay: Anti-tumour activity against MAC15A ascites tumour, survival T/C%; format: in vivo, mice; conditions: ip; for T/C%: mouse, in vivo; for response vs control in vivo at 100 mg/kg: Mus musculus, MAC15A, read-out: T/C%
HIV-1RF = assay: Acute Infection Assay, HIV core antigen ELISA in C8166 cells; format: cell-based, human immunodeficiency virus
P388 (murine leukaemia) = assay: Anti-tumour activity against P388 ascites tumour, survival T/C%; format: in vivo, mice; conditions: Table 2, mean, day 1 to 5
Procedure: (§1) The purpose of these studies was to evaluate the anti-tumour properties of a group of compounds with structural similarities that may act as arylating agents. Their in vivo anti-tumour responses were assessed against two ascitic tumours, the MAC15A murine colon adenocarcinoma and the P388 murine leukaemia and various solid tumour models.
(§2) The MAC15A ascites tumour cells were transplanted into male NMR1 mice by ip inoculation at a cell density of 1 X 10^5 cells in 200µl buffer (Table 1). The P388 were transplanted ip into male BDF1 mice at cell density of 1 X 10^6 cells in 200µl buffer (Table 2). The solid tumour models included the MAC13 and MAC16 murine colon adenocarcinomas, the B16 F1 murine melanoma and the M5076 reticulum cell sarcoma.
(§3) Treatment commenced 3 days after ip transplant or, in the case of solid tumours such as MAC13 and MAC16, treatment commenced when average tumour volumes reached 40mm^3.
The animals were located in both cases into groups of 5 to 8 animals.
(§4) The animals were sacrificed after 12 days or when tumours ulcerated, tumour volume exceeded 1000mm^3 or loss of body weight exceeded 50%.
Except where otherwise stated, the compounds used were dissolved in DMSO and diluted in sterile distilled water, at appropriate concentrations before administration in a solvent volume of 200 µl. […]
T/C% is determined as follows:- […]

in vitro = conditions: CC50 (Toxicity)
[2] = test system: M5076 reticulum cell sarcoma; assay: Anti-tumour activity against M5076 reticulum cell sarcoma; format: in vivo, murine; conditions: statement in words
Procedure: as §1, §2, §3, §4
(§5) Except where otherwise stated, the compounds used were dissolved in DMSO and diluted in sterile distilled water, at appropriate concentrations before administration in a solvent volume of 200 µl. Anti-tumour responses were obtained by comparing the median survival times or tumour growth inhibition against solvent controls.

in vivo = conditions: mouse, ip
[3] = Anti-tumour activity against MAC13, tumour weight inhibition; format: in vivo, murine; conditions: mouse, in vivo; Table 6; ip, per day; corn oil; read-out: maximum tolerated dose
Procedure: as §1, §2, §3, §4, §5

[4] = test system: MAC13 murine colon adenocarcinoma; assay: as above; format: in vivo; conditions: 12 days after im transplant, corn oil
Procedure: as §1, §2, §3, §4, §5

HIV-1IIIB = assay: Acute infection assay against HIV-1IIIB; format: cell-based, human immunodeficiency virus; conditions: for IC50: read-out: IC50 (Antiviral)
B16F1-murine melanoma = conditions: for % Tumour Weight Inhibition: 12 days after sc transplant, corn oil
[5] = test system: MAC16, murine colon adenocarcinoma; assay: Anti-tumour activity against MAC16, tumour weight inhibition; format: in vivo; conditions: for % Tumour Weight Inhibition: day 11 after beginning of treatment, sc transplant, corn oil
Procedure: as §1, §2, §3, §4, §5

[6] = as above; format: in vivo, murine; conditions: mouse, in vivo; Table 7; ip, per day; corn oil; read-out: maximum tolerated dose
Procedure: as §1, §2, §3, §4, §5

B16 murine melanoma = assay: Anti-tumour activity against B16 melanoma in C57/black mice, tumour weight inhibition; format: in vivo, female C57/black mice; conditions: statement in words, refers to Table 8
[7] = Anti-tumour activity in vitro; conditions: statement in words
[8] = Human immunodeficiency virus 1, IIIB
[9] = Human immunodeficiency virus 1, Table 11.3, Against HIV-IIIB / HIV-1IIIB, single assays, unit inferred
[10] = Human immunodeficiency virus 1, C8166, read-out: IC50 (Antiviral)

O=[N+]([O-])c1cc(S(=O)(=O)O)cc([N+](=O)[O-])c1Cl [Compound S1, 4-chloro-3,5-dinitrobenzenesulfonic acid]
CD50 (uninfected cells): 80 µM | T/C% [1]: 414% | SI (Selectivity Index) (HIV-1RF): 5 and 3 | TI (HIV-1RF): 28.6 | IC50 (HIV-1RF; read-out: IC50): 3 µM | IC50 (HIV-1RF; read-out: IC50 (Antiviral)): 20 µM and 19 µM | TC% (P388 (murine leukaemia); 50 mg kg^-1 per day IP): 259% | TC% (P388 (murine leukaemia); 100mg kg^-1 per day IP): 203% | CC50 (in vitro): 100 µM

NC(=O)c1cc([N+](=O)[O-])c(Cl)c([N+](=O)[O-])c1Cl [Compound C2, 2,4-dichloro-3,5-dinitrobenzamide]
antitumour activity [2]: without antitumour activity | MTD (in vivo): 2.5 mg/kg | MTD at 12 days [3]: 2.5 mg/kg | % Tumour Weight Inhibition ([4]; 1.25 mg/kg ip, days 1,2,3,4,5,6,7,8,9): 17% | % Tumour Weight Inhibition ([4]; 2.5 mg/kg ip, days 1,2,3,4,5,6,7,8,9): 51% | SI (Selectivity Index) (HIV-1IIIB): 35 | IC50 (HIV-1IIIB; [8]): 2 µM | CC50 (in vitro): 70 µM

O=C(O)c1cc([N+](=O)[O-])c(Cl)c([N+](=O)[O-])c1Cl [Compound C1, 2,4-dichloro-3,5-dinitrobenzoic acid]
CC50 (uninfected cells): 60 µM | MTD (in vivo): 75 mg/kg | inhibition of tumour growth (B16F1-murine melanoma; mouse, in vivo): effectively inhibited growth | MTD at 12 days [3]: 75 mg/kg | % Tumour Weight Inhibition ([4]; 50 mg/kg ip, days 1,2,3,4,5,6,7,8,9): 39% | % Tumour Weight Inhibition ([4]; 75 mg/kg ip, days 1,4,5): 45% | response vs control in vivo at 100 mg/kg [1]: 243% | % Tumour Weight Inhibition ([5]; 50 mg/kg ip, days 1,2,4,5,8): 91% | % Tumour Weight Inhibition ([5]; 75 mg/kg ip, days 1,2,5,8): 88% | inhibition of tumour growth ([5]; statement in words, MAC16 murine colon adenocarcinoma): effectively inhibited growth | MTD at 12 days [6]: 75 mg/kg | CC50 (in vitro): 56 µM

COC(=O)c1cc([N+](=O)[O-])c(Cl)c([N+](=O)[O-])c1 [Compound C6, 4-chloro-3,5-dinitrobenzoic acid methyl ester]
MTD (in vivo): 2.5 mg/kg | IC50 (HIV-1IIIB; [8]): 5 µM | CC50 (in vitro): 60 µM

O=C(O)c1ccc(Cl)c(Cl)c1 [Compound C-11, 3,4-dichlorobenzoic acid]
IC50 (HIV-1IIIB; [9]): > 200 µM | CC50 (in vitro): > 200 µM

O=[N+]([O-])c1cc(Cl)cc(Cl)c1 [Compound E8, 3,5-dichloronitrobenzene]
CC50 (uninfected cells): > 200 µM | SI (Selectivity Index) (HIV-1RF): 1.5 | IC50 (HIV-1RF; [10]): 120 µM

O=C(O)c1cc([N+](=O)[O-])c(Cl)c([N+](=O)[O-])c1 [Compound C4, 4-chloro-3,5-dinitrobenzoic acid]
CD50 (uninfected cells): 70µm | % Tumour Weight Inhibition (B16F1-murine melanoma; 50 mg/kg ip, days 1,5): 10% | % Tumour Weight Inhibition (B16F1-murine melanoma; 75 mg/kg ip, days 1,5): 41% | % Tumour Weight Inhibition (B16F1-murine melanoma; 100 mg/kg ip, days 1,5): 39% | SI (Selectivity Index) (HIV-1IIIB): 2.5 and 2.3 | TI (HIV-1RF): 2.33 | CC50 (in vitro): 100 µM

O=[N+]([O-])c1ccc(Cl)c(Cl)c1 [Compound E7, 3,4-dichloronitrobenzene]
CC50 (uninfected cells): > 200 µM | IC50 (HIV-1RF; [10]): > 200 µM

O=C(O)c1ccc(Cl)c([N+](=O)[O-])c1 [Compound C9, 4-chloro-3-nitrobenzoic acid]
IC50 (HIV-1IIIB; [9]): > 200 µM | CC50 (in vitro): > 200 µM

COC(=O)c1cc([N+](=O)[O-])c(Cl)c([N+](=O)[O-])c1Cl [Compound C3, 2,4-dichloro-3,5-dinitrobenzoic acid methyl ester]
antitumour activity [2]: without antitumour activity | IC50 (HIV-1IIIB; [8]): 0.3 µM | CC50 (in vitro): 7 µM

O=C(O)c1cc([N+](=O)[O-])ccc1Cl [2-chloro-5-nitrobenzoic acid]
anti-tumour activity in vivo (B16 murine melanoma): shows consideration anti-tumour activity in vivo | anti-tumour activity in vitro [7]: could not be supported in vitro

O=[N+]([O-])c1ccc(Cl)cc1Cl [Compound E5, 2,4-dichloronitrobenzene]
CC50 (uninfected cells): > 200 µM | SI (Selectivity Index) (HIV-1RF): 1 | IC50 (HIV-1RF; [10]): 180 µM

O=C(O)c1ccc([N+](=O)[O-])cc1Cl [Compound C-10, 2-chloro-4-nitrobenzoic acid]
IC50 (HIV-1IIIB; [9]): > 200 µM | CC50 (in vitro): > 200 µM

COC(=O)c1cc([N+](=O)[O-])cc([N+](=O)[O-])c1Cl [Compound C8, 2-chloro-3,5-dinitrobenzoic acid methyl ester]
IC50 (HIV-1IIIB; [8]): 10 µM | CC50 (in vitro): 60 µM

O=C(O)c1cc([N+](=O)[O-])cc([N+](=O)[O-])c1Cl [Compound C7, 2-chloro-3,5-dinitrobenzoic acid]
CC50 (uninfected cells): > 200 µM | SI (Selectivity Index) (HIV-1IIIB): 6 and >10 | IC50 (HIV-1IIIB): 23 µM | CC50 (in vitro): 150 µM

O=S(=O)(O)c1cc(Cl)ccc1Cl [Compound S7, 2,5-dichlorobenzenesulfonic acid]
response vs control in vivo at 100 mg/kg [1]: 212% | IC50 (HIV-1RF; Human immunodeficiency virus 1, C8166, Table 11.4, Against HIV-1RF, single assays, unit inferred, read-out: IC50 (Antiviral)): > 200 µM | CC50 (in vitro): > 200 µM

O=[N+]([O-])c1cccc(Cl)c1Cl [Compound E4, 2,3-dichloronitrobenzene]
CC50 (uninfected cells): > 200 µM | SI (Selectivity Index) (HIV-1RF): 1.5 | IC50 (HIV-1RF; [10]): 80 µM

O=[N+]([O-])c1ccc(S(=O)(=O)O)c([N+](=O)[O-])c1 [Compound S8, 2,4-dinitrobenzenesulfonic acid]
T/C% [1]: 171% | IC50 (HIV-1RF; read-out: IC50 (Antiviral)): 40 µM and 30 µM | CC50 (in vitro): 100 µM

NC(=O)c1cc([N+](=O)[O-])c(Cl)c([N+](=O)[O-])c1 [Compound C5, 4-chloro-3,5-dinitrobenzamide]
MTD at 12 days (in vivo): 5 mg/kg | % Tumour Weight Inhibition (B16F1-murine melanoma; 1.25 mg/kg ip, days 1,3,5): 27% | % Tumour Weight Inhibition (B16F1-murine melanoma; 2.5 mg/kg ip, days 1,3,5): 18% | % Tumour Weight Inhibition (B16F1-murine melanoma; 5 mg/kg ip, days 1,3,5): 18% | SI (Selectivity Index) (HIV-1IIIB): 10 | CC50 (in vitro): 50 µM

Nc1c([N+](=O)[O-])cc(S(=O)(=O)O)cc1[N+](=O)[O-] [Compound S3, 4-amino-3,5-dinitrobenzenesulfonic acid]
CD50 (uninfected cells): 100µm | T/C% [1]: 286% | TI (HIV-1RF): 5 | IC50 (HIV-1RF; read-out: IC50): 20 µM

O=[N+]([O-])c1cc([N+](=O)[O-])c(Cl)c(S(=O)(=O)O)c1 [Compound S2, 2-chloro-3,5-dinitrobenzenesulfonic acid]
CD50 (uninfected cells): >200µm | T/C% [1]: 137% | TI (HIV-1RF): >8 | IC50 (HIV-1RF; read-out: IC50): 25 µM

O=[N+]([O-])c1ccc(Cl)cc1[N+](=O)[O-] [Compound E1, 1-chloro-3,4-dinitrobenzene]
T/C% [1]: 200% | SI (Selectivity Index) (HIV-1RF): 2.5 | IC50 (HIV-1RF; read-out: IC50 (Antiviral)): 4 µM | CC50 (in vitro): 10 µM
